We go through one compound from paper PMC3328449, “Inhibition of Diacylglycerol–Sensitive TRPC Channels by Synthetic and Natural Steroids” (PLoS ONE, 2012).

A word on the IC50: it is the concentration that gives 50% inhibition.

Several values for one entry are separate records, joined by “and”; a condition that tells them apart may be missing. Equal values may be shown once. A value given as a limit tells only on which side of the number the result lay.

This assay has as its target T1, mTRPC5 (Mus musculus, UniProt Q9QX29).
T1 construct: expressed in transfected cells
T1 sequence (Q9QX29 1-975): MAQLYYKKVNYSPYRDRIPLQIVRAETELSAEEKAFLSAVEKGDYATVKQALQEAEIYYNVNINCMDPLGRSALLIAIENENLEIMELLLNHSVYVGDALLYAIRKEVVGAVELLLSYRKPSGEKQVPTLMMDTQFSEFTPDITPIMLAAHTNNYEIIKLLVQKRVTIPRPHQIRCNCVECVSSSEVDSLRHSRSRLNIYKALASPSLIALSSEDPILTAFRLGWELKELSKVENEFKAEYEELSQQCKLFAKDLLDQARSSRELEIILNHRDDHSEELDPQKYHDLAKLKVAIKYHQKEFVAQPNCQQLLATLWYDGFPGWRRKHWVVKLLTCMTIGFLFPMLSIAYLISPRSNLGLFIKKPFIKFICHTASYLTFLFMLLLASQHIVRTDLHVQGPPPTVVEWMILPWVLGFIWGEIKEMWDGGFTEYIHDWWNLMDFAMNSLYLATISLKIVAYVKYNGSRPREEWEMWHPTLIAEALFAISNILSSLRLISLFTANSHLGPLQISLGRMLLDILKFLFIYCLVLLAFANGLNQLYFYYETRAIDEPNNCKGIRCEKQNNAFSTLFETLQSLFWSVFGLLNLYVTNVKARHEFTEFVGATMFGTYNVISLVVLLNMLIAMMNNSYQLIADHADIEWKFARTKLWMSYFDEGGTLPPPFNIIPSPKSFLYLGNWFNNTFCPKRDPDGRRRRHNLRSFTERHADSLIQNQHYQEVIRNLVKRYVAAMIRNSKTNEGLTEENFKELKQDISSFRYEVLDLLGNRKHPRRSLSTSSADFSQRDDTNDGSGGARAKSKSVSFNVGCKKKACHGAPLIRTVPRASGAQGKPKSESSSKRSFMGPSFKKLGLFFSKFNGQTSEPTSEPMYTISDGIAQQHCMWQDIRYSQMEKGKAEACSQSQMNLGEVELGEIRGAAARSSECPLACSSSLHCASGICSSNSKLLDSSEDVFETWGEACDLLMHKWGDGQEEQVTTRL
Briefly: Whole-cell patch clamp, AlF4- evoked TRPC5 currents. The class given is cell-based. The procedure: Cells were grown at 37°C in a humidified atmosphere (5% or 7% CO2) under standard cell culture conditions. Stable human embryonic kidney (HEK) cell lines expressing recombinant mTRPC4ß (GenBank accession number AAC05178); mTRPC5 (GenBank accession number NM_009428) or hTRPC6 (GenBank accession number AF080394) under the control of a tetracycline-inducible promoter were generated using the Flp-In T-Rex (FITR) system (Invitrogen, Karlsruhe, Germany). […]
Cells grown on poly-L-lysine-coated coverslips were continuously superfused with extracellular solution and substances were applied using an ALA BPS-8 perfusion system (ALA Scientific Instruments, Westbury, USA). […] Cells were held at −70 mV, and current-voltage (I–V) relationships were routinely measured every 2 or 3 s by applying voltage ramps (180 ms) from −100 mV to +80 mV. […]
For statistical analysis, analysis of variance was performed with Origin 6.0 software (Microcal Software Inc., Northampton, USA). […] IC50 were calculated with SigmaPlot (Systat software, San Jose, USA) using the sigmoidal Hill-model: f = 100 (C^n/(IC50 ^n+C^n)); where f is the inhibition, C is the applied drug concentration and n is the Hill coefficient. […] Averaged data is expressed as means ± SEM.
A general note: In patch-clamp work, channel activity is measured electrically.

Regarding `C#C[C@]1(OC(C)=O)CC[C@H]2[C@@H]3CCC4=CC(=NO)CC[C@@H]4[C@H]3CC[C@@]21CC` (mixture of isomers) [norgestimate], the “Hill slope, TRPC5 current inhibition” value (fit to dose-response equation) was determined as 1.43. Further, under “whole-cell patch clamp, AlF4- infusion, TRPC5 HEK-FITR cells, read-out: IC50, TRPC5 current inhibition”, the IC50 is > 10 µM and 13.6 µM and ~14 µM.
